In patent US20240165281A1, “DUAL MODE RADIOTRACER AND THERAPEUTICS” (Technische Universität München, priority 2021, published 2024):
Where two headings read alike, the source gives them in different places.

Experiments:
[1] = molecular target: T1, Human Serum Albumin (HSA) (Homo sapiens, UniProt P02768); experiment: Human serum albumin (HSA) binding by high performance affinity chromatography (HPAC); type: in vitro ADME; details: Chiralpak HSA column
T1 construct: purchased Daicel H13H-2433
Experimental: Determination of Human Serum Albumin (HSA) Binding by High Performance Affinity Chromatography (HPAC)
HSA binding of the PSMA-addressing ligands was determined according to a previously published procedure via HPLC (Valko, K.; Nunhuck, S.; Bevan, C.; Abraham, M. H.; Reynolds, D. P. Journal of pharmaceutical sciences 2003, 92, 2236-2248). A Chiralpak HSA column (50×3 mm, 5 μm, H13H-2433, Daicel, Tokyo, Japan) was used at a constant flow rate of 0.5 mL/min at rt. Mobile phase A was a freshly prepared 50 mM aqueous solution of NH4OAc (pH 6.9) and mobile phase B was isopropanol (HPLC grade, VWR). The applied gradient for all experiments was 100% A (0 to 3 min), followed by 80% A (3 to 40 min). Prior to the experiment, the column was calibrated using nine reference substances with a HSA binding, known from literature, in the range of 13 to 99% (Valko, K.; Nunhuck, S.; Bevan, C.; Abraham, M. H.; Reynolds, D. P. Journal of pharmaceutical sciences 2003, 92, 2236-2248; Yamazaki, K.; Kanaoka, M. Journal of Pharmaceutical sciences 2004, 93, 1480-1494). All substances, including the examined PSMA ligands, were dissolved in a 1:1 mixture (v/v) of isopropanol and a 50 mM aqueous solution of NH4OAc (pH6.9) with a final concentration of 0.5 mg/mL. Non-linear regression was established with the OriginPro 2016G software (Northampton, United States) (FIG. 8).

[2] = tested on: LNCaP tumor-bearing male CB-17 SCID mice; experiment: Biodistribution studies 24 h p.i.; details: for In vivo biodistribution (24 h p.i.) blood / In vivo biodistribution (24 h p.i.) kidney / In vivo biodistribution (24 h p.i.) tumor: Table 6; for uptake in adrenals / uptake in blood / uptake in bone / uptake in heart / uptake in intestine / uptake in kidney / uptake in liver / uptake in lung / uptake in muscle / uptake in pancreas / uptake in parotid gl. / uptake in spleen / uptake in stomach / uptake in submand. gl. / uptake in tumor: mean
Experimental: Approximately 3-7 MBq (0.1-0.2 nmol) of the radioactive-labelled PSMA inhibitors were injected into the tail vein of LNCaP tumor-bearing male CB-17 SCID mice and sacrificed after 24 h post injection. Selected organs were removed, weighted and measured in a γ-counter. Results are all decay corrected and given in % injected dose per gram of tissue (% iD/g). Tumor-to-organ ratios are calculated from animals' individual ratios and are given as mean±standard deviation.

[3] = Apparent molecular weight (MWapp)
[4] = Octanol-water partition coefficient (log D7.4); type: physicochemical; details: PBS pH 7.4 / n-octanol, 177Lu-labelled
Experimental: Octanol-Water Partition Coefficient (log D7.4)
Approximately 1 MBq of the labelled tracer was dissolved in 1 mL of a 1:1 mixture (v/v) of PBS (pH 7.4) and n-octanol in a reaction vial (1.5 mL). After vigorous mixing of the suspension for 3 minutes at room temperature, the vial was centrifuged at 15000 g for 3 minutes (Biofuge 15, Heraus Sepatech, Osterode, Germany) and 100 μL aliquots of both layers were measured in a gamma counter. The experiment was repeated at least six times.

[5] = tested on: LNCaP cells; experiment: Internalization studies in LNCaP cells; type: cell-based; details: 37° C., 60 min
Experimental: PSMA-positive LNCAP cells (300265; Cell Lines Service, Eppelheim, Germany) were cultivated in Dulbecco modified Eagle medium/Nutrition Mixture F-12 with Glutamax (1:1) (DMEM-F12, Biochrom, Berlin, Germany) supplemented with fetal bovine serum (10%, FBS Zellkultur, Berlin, Germany) and kept at 37° C. in a humidified CO2 atmosphere (5%). A mixture of trypsin and EDTA (0.05%, 0.02%) in PBS (Biochrom) was used in order to harvest cells. Cells were counted with a Neubauer hemocytometer (Paul Marienfeld, Lauda-Königshofen, Germany).
For internalization studies, LNCaP cells were harvested 24±2 hours before the experiment and seeded in poly-L-lysine coated 24-well plates (1.25×10^5 cells in 1 mL/well, Greiner Bio-One, Kremsmünster, Austria). After removal of the culture medium, the cells were washed once with 500 μL DMEM-F12 (5% BSA) and left to equilibrate for at least 15 min at 37° C. in […] DMEM-F12 (5% BSA). Each well was treated with either 25 μL of either DMEM-F12 (5% BSA, control) or 25 μL of a 100 μM PMPA (2-(Phosphonomethyl)-pentandioic acid, Tocris Bioscience, Bristol, UK) solution in PBS, for blockade. Next, 25 μL of the radioactive-labelled PSMA inhibitor (10.0 nM in DMEM-F12 (5% BSA)) was added and the cells were incubated at 37° C. for 60 min. The experiment was terminated by placing the 24-well plate on ice for 3 min and consecutive removal of the medium. Each well was carefully washed with 250 μL of ice-cold HBSS. Both fractions from the first steps, representing the amount of free radioligand, were combined. Removal of surface bound activity was accomplished by incubation of the cells with 250 μL of ice-cold PMPA (10 μM in PBS) solution for 5 min and rinsed again with another 250 μL of ice-cold PBS. The internalized activity was determined by incubation of the cells in 250 μL […] aqueous NaOH for at least 10 min. The obtained fractions were combined with those of the subsequent wash step with 250 μL 1 M aqueous NaOH. Each experiment (control and blockade) was performed in triplicate. Free, surface bound and internalized activity was quantified in a y-counter. All internalization studies were accompanied by external reference studies, using ([^125I]I-BA)KuE (c=0.2 nM), which were performed analogously. Data were corrected for non-specific binding and normalized to the specific-internalization observed for the radioiodinated reference compound.

[6] = molecular target: T2, PSMA (Homo sapiens, UniProt Q04609); experiment: PSMA affinity (IC50), competition with [125I]I-BA-KuE on LNCaP cells; type: binding; details: natLu complex, on ice 60 min
T2 construct: PSMA-positive LNCAP cells (300265; Cell Lines Service, Eppelheim, Germany); host or cells: LNCaP cells
Experimental: A mixture of trypsin and EDTA (0.05%, 0.02%) in PBS (Biochrom) was used in order to harvest cells. Cells were counted with a Neubauer hemocytometer (Paul Marienfeld, Lauda-Königshofen, Germany).
Affinity Determinations (IC50)
In the case of metal-complexed ligands, the crude reaction mixture was diluted analogously, without further purification. Cells were harvested 24±2 hours prior to the experiment and seeded in 24-well plates (1.5×10^5 cells in 1 mL/well). […] The media of both steps were combined in one fraction and represent the amount of free radioligand. Afterwards, the cells were lysed with 250 μL of 1 M aqueous NaOH for at least 10 min. After a washing step (250 μL of 1 M NaOH), both fractions, representing the amount of bound ligand, were united. Quantification of all collected fractions was accomplished in a γ-counter. PSMA-affinity determinations were carried out at least three times per ligand.

T1 sequence (P02768 25-609): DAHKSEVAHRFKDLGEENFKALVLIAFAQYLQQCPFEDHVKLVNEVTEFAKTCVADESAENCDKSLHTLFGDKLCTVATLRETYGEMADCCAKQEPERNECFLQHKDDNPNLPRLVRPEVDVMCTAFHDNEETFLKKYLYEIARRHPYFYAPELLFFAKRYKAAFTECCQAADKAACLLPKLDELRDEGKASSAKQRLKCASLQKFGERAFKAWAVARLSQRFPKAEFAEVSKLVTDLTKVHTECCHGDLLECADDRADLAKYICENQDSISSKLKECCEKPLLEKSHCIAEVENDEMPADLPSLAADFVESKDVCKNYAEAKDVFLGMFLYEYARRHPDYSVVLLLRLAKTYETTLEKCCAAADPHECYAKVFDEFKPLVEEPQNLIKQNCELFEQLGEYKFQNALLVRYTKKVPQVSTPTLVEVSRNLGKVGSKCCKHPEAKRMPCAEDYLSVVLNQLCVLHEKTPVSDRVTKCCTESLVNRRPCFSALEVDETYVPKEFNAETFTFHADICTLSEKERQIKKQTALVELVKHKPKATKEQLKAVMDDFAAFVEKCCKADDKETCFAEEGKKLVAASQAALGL
T2 sequence (Q04609 whole entry): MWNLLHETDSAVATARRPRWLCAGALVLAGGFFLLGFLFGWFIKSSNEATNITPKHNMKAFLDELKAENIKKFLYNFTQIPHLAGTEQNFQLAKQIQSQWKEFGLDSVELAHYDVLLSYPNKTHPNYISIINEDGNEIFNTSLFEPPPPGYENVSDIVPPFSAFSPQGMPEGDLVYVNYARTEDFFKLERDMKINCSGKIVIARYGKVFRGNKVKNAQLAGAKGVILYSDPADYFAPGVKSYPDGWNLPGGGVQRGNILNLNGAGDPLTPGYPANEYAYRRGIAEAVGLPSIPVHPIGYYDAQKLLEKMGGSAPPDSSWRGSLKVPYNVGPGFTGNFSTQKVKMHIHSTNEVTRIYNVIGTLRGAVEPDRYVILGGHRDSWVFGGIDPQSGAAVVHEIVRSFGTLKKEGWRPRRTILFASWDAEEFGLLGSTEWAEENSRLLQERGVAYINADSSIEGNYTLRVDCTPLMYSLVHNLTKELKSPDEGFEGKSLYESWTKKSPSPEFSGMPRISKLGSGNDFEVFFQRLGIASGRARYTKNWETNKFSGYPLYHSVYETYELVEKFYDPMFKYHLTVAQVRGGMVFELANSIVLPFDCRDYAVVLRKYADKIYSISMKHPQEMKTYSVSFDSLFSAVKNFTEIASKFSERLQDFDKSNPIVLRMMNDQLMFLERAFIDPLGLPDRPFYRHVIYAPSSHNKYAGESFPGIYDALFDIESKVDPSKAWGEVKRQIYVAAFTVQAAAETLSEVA

Row | Compound | HSA (HPAC) [1] [%] | In vivo biodistribution (24 h p.i.) blood [2] [% iA/g] | In vivo biodistribution (24 h p.i.) kidney [2] [% iA/g] | In vivo biodistribution (24 h p.i.) tumor [2] [% iA/g] | uptake in adrenals [2] [% iD/g] | uptake in blood [2] [% iD/g] | uptake in bone [2] [% iD/g] | uptake in heart [2] [% iD/g] | uptake in intestine [2] [% iD/g] | uptake in kidney [2] [% iD/g] | uptake in liver [2] [% iD/g] | uptake in lung [2] [% iD/g] | uptake in muscle [2] [% iD/g] | uptake in pancreas [2] [% iD/g] | uptake in parotid gl. [2] [% iD/g] | uptake in spleen [2] [% iD/g] | uptake in stomach [2] [% iD/g] | uptake in tumor [2] [% iD/g] | MWapp [3] [kDa] | logD7.4 [4] | also measured
1 | CC(C)(C)[Si](F)(c1ccc(C(=O)NCC(NC(=O)CCC(C(=O)O)N2CCN(CC(=O)O)CCN(CC(=O)O)CCN(CC(=O)O)CC2)C(=O)NC(CN)C(=O)NCCC(=O)NCCC(=O)NCCCC(NC(=O)CCC(NC(=O)NC(CCC(=O)O)C(=O)O)C(=O)O)C(=O)O)cc1)C(C)(C)C (stereo not drawn) [Compound 2C011] | 89.8 | 0.0042 ± 0.0019 | 2.1 ± 0.49 | 11.86 ± 0.75 | 0.1488 | 0.0042 | 0.0363 | 0.0254 | 0.2229 | 2.0983 | 0.2848 | 0.0469 | 0.0067 | 0.0264 | 0.0857 | 0.3218 | 0.0829 | 11.8594 | 18.9 | −2.88 ± 0.06 | uptake in submand. gl. [2]: 0.052 % iD/g; Internalization ([5]; normalized to reference): 163.2 ± 6.91 % IBA; IC50 [6]: 6.08 ± 0.16 nM
2 | CC(C)(C)[Si](F)(c1ccc(C(=O)NC[C@@H](NC(=O)[C@@H](CCCNC(N)=O)NC(=O)CC[C@@H](C(=O)O)N2CCN(CC(=O)O)CCN(CC(=O)O)CCN(CC(=O)O)CC2)C(=O)NCCCCCC(=O)NCCC[C@@H](NC(=O)CC[C@H](NC(=O)N[C@@H](CCC(=O)O)C(=O)O)C(=O)O)C(=O)O)cc1)C(C)(C)C [Compound 2C014] | 94.6 | 0.0014 ± 0.0006 | 2.77 ± 0.84 | 16.54 ± 3.37 | 0.1473 | 0.0014 | 0.0327 | 0.0245 | 0.1006 | 2.7708 | 0.2376 | 0.0654 | 0.0107 | 0.0192 | 0.09 | 0.4296 | 0.0367 | 16.5415 | 19.2 | −3.37 ± 0.10 | uptake in submand. gl. [2]: 0.0555 % iD/g; Internalization ([5]; normalized to reference): 235 ± 20 % IBA; IC50 ([6]; read-out: IC50): 3.95 ± 1.36 nM
3 | CC(C)(C)[Si](F)(c1ccc(C(=O)NC[C@@H](NC(=O)[C@@H](CCCNC(N)=O)NC(=O)CC[C@H](C(=O)O)N2CCN(CC(=O)O)CCN(CC(=O)O)CCN(CC(=O)O)CC2)C(=O)NCCCCCC(=O)NCCC[C@@H](NC(=O)CC[C@H](NC(=O)N[C@@H](CCC(=O)O)C(=O)O)C(=O)O)C(=O)O)cc1)C(C)(C)C [Compound 2C015] | 95.0 | 0.0007 ± 0.0005 | 2.23 ± 1.29 | 8.98 ± 2.32 | 0.1013 | 0.0007 | 0.0223 | 0.0237 | 0.1103 | 2.2339 | 0.164 | 0.0468 | 0.0062 | 0.0212 | 0.0674 | 0.2671 | 0.036 | 8.9821 | 18.9 | −3.40 ± 0.10 | uptake in submand. gl. [2]: 0.0389 % iD/g; Internalization ([5]; normalized to reference): 226 ± 10 % IBA; IC50 ([6]; read-out: IC50): 3.99 ± 0.74 nM
4 | O=C(O)CC[C@H](NC(=O)N[C@@H](CCCCNC(=O)[C@H](Cc1ccc2ccccc2c1)NC(=O)[C@H]1CC[C@H](CNC(=O)CN2CCN(CC(=O)O)CCN(CC(=O)O)CCN(CC(=O)O)CC2)CC1)C(=O)O)C(=O)O [PSMA-617, reference compound] | 84.9 | – | – | – | – | – | – | – | – | – | – | – | – | – | – | – | – | – | 13.7 | −4.10 | Kidneys (24 h) ([2]; Table 1): 9.8 ± 2.7 % iD/g; Tumor (24 h) ([2]; Table 1): 11.6 ± 2.2 % iD/g; T/K-ratio ([2]; tumor/kidney, Table 1): 1.24 ± 0.29; Internalization ([5]; normalized to ([125I]I-BA)KuE): 203 ± 10 % IBA-KuE; IC50 ([6]; read-out: IC50): 3.3 ± 0.2 nM
5 | PSMA-617 [reference compound] | – | – | – | – | 0.1910 | 0.0056 | 0.0267 | 0.0119 | 0.1185 | 1.4421 | 0.1167 | 0.0393 | 0.0092 | 0.0106 | – | 0.0812 | 0.0201 | 7.4568 | – | – | tumor-to-organ ratio adrenals ([2]; n = 4, mean): 43.54; tumor-to-organ ratio blood ([2]; n = 4, mean): 1423.84; tumor-to-organ ratio bone ([2]; n = 4, mean): 471.67; tumor-to-organ ratio heart ([2]; n = 4, mean): 704.01; tumor-to-organ ratio intestine ([2]; n = 4, mean): 90.33; tumor-to-organ ratio kidney ([2]; n = 4, mean): 5.85; tumor-to-organ ratio liver ([2]; n = 4, mean): 91.22; tumor-to-organ ratio lung ([2]; n = 4, mean): 210.40; tumor-to-organ ratio muscle ([2]; n = 4, mean): 855.38; tumor-to-organ ratio pancreas ([2]; n = 4, mean): 798.52; tumor-to-organ ratio spleen ([2]; n = 4, mean): 93.28; tumor-to-organ ratio stomach ([2]; n = 4, mean): 375.80
